In series [1] the test system is selected bacteria involved in pouchitis pathogenesis. In words: MIC, broth dilution, whole panel. Particulars: Gram-positive and Gram-negative, aerobic and anaerobic bacteria of Table 3. The series is classed as cell-based. An excerpt: (§1) The Minimum Inhibitory Concentration (MIC) is defined as the lowest concentration expressed in mg/L (equivalent to μg/mL) of an antimicrobial ingredient or agent that is bacteriostatic (prevents the visible growth of bacteria). MICs are used to evaluate the antimicrobial efficacy of various compounds by measuring the effect of decreasing concentrations of antibiotic over a defined period in terms of inhibition of microbial population growth. MIC is generally regarded as the most basic laboratory measurement of the activity of an antimicrobial agent against an organism.
(§2) Antimicrobial characteristics of Rifamycin sodium salt was assessed on a panel of selected bacteria involved in pouchitis pathogenesis and a standard broth dilution method was used to determine the MIC of Rifamycin. Briefly, two-fold dilutions of the tested compounds were dispensed in 96 round bottom well plates, each dilution was processed in the liquid culture medium suitable for the tested bacterial species. Bacteria inocula were prepared by a suspension of the microbial strain in sterile water saline and adjusted to a concentration of 0.5McFarland standard corresponding to 1.5×10^8 CFU/ml. A final bacterial concentration of 0.5-1×10^5 CFU/ml was distributed in each well. […] MIC was recorded when there was visible growth in the positive growth control column (bacterial inoculum without test substance). […]

The nature of series [2]: Rifamycin concentration in colon homogenates and plasma, HPLC/MS-MS. The series is classed as in vivo. Particulars: rats, single enema of formulation 7639. On the procedure: Briefly, rats were anesthetized and treated by enema with formulation 7639 (2 mL/rat) into the rectum by using a catheter. All rats were sacrificed by CO2 inhalation at the predetermined time points. After a single enema administration of 7639 formulation, the concentration of Rifamycin in colon homogenates and plasma was determined by HPLC/MS-MS in samples collected at various time points.

Another series concerns C. perfringens. In words: microbe, parasite or virus in culture. Format: cell-based. Particulars: Clostridium perfringens, DSM11783.
Another series has as its system Streptococcus pyogenes. In words: MIC, broth dilution. The series is classed as cell-based. Particulars: ATCC700460; Streptococcus pyogenes (ATCC 700460); aerobic.
In the next series the test system is Fusobacterium ulcerans. The experiment in a line: MIC, broth dilution. The series is classed as cell-based. Particulars: DSM19847; Fusobacterium ulcerans (DSM 19847); anaerobic.
Another series has as its system Clostridium difficile. In words: MIC, broth dilution. The series is classed as cell-based. Particulars: Clostridioides difficile, anaerobic.
Description: as §1, §2

The subject of another series is Ruminococcus gnavus. The experiment in a line: MIC, broth dilution. The series is classed as cell-based. Particulars: Mediterraneibacter gnavus, DSM108212; Ruminococcus gnavus (DSM 108212); anaerobic.
The subject of a further series is Bifidobacterium breve. The experiment in a line: MIC, broth dilution. Format: cell-based. Particulars: DSM20091; Bifidobacterium breve (DSM 20091); anaerobic.
Another series has as its system B. longum. The experiment in a line: MIC, broth dilution. The series is classed as cell-based. Particulars: Bifidobacterium longum, anaerobic.
In a further series the test system is Prevotella intermedia. The experiment in a line: MIC, broth dilution. The series is classed as cell-based. Particulars: DSM20706; Prevotella intermedia (DSM 20706); anaerobic.
For another series, the system named is Klebsiella oxytoca. The experiment in a line: MIC, broth dilution. The series is classed as cell-based. Particulars: aerobic.

Molecules are shown by their SMILES. In brackets after ≈: the same amount, converted by molar mass.

Regarding `CO[C@H]1/C=C/O[C@@]2(C)Oc3c(C)c(O)c4c(O)c(cc(O)c4c3C2=O)NC(=O)/C(C)=C\C=C\[C@H](C)[C@H](O)[C@@H](C)[C@@H](O)[C@@H](C)[C@H](OC(C)=O)[C@@H]1C` [Rifamycin SV], in [1], the “antimicrobial activity in vitro” value was “powerful antimicrobial activity”. The compound also gave a concentration at 6 h in [2] (rat, colon homogenate, other: enema into the rectum, 2 mL/rat, 6 hrs after administration) of 123 ng/g. The “concentration in blood samples (LLOQ of the method)” value in [2] (30 min., 1 h, 2 h, 4 h and 6 h) is less than 1 ng/mL. The MIC in the series on C. perfringens is less than 0.03 µg/mL; with Streptococcus pyogenes, 0.5 µg/mL (≈ 0.717 µM); against Fusobacterium ulcerans, 16 µg/mL (≈ 22.9 µM); against Clostridium difficile (ATCC17857, C. difficile (ATCC 17857)), 0.00011 µg/mL (≈ 0.000158 µM); with Clostridium difficile (ATCC43953, Clostridium difficile (ATCC 43953)), 0.007 µg/mL (≈ 0.01 µM); in the series on Ruminococcus gnavus, less than 0.03 µg/mL. In addition, the MIC in the series with Bifidobacterium breve was 0.5 µg/mL (≈ 0.717 µM); in the series with B. longum (DSM20088, B. longum (DSM 20088)) it was 0.5 µg/mL (≈ 0.717 µM); against B. longum (DSM20090, B. longum (DSM 20090)), 0.25 µg/mL (≈ 0.358 µM); with Prevotella intermedia, less than 0.3 µg/mL; in the series on Klebsiella oxytoca (DSM6673, Klebsiella oxytoca (DSM 6673)) it was 128 µg/mL (≈ 183 µM); with Klebsiella oxytoca (Klebsiella oxytoca, ATCC700324, K. oxytoca (ATCC 700324)), 200 µg/mL (≈ 287 µM). For the same compound, the MIC worked out at 256 µg/mL (≈ 367 µM) against Klebsiella oxytoca (Klebsiella oxytoca, DSM4798, K. oxytoca (DSM 4798)) and 128 µg/mL (≈ 183 µM) against Klebsiella oxytoca (Klebsiella oxytoca, DSM5175, K. oxytoca (DSM 5175)).

The values above are taken from patent publication US20240408008A1, “AN IN-SITU GELLING ENEMA OF RIFAMYCIN FOR TREATING POUCHITIS AND DISTAL ULCERATIVE COLITIS” (COSMO TECHNOLOGIES LTD., priority 2021, published 2024).
